Data from patent US9850256B2, “Antibacterial basic biaromatic derivatives with aminoalkoxy substitution” (priority 2014, dated 2017).
Values after ≈ are worked out from the molar mass of the structure shown.

How the values were obtained:
Test in all cases: Bacterial growth minimal inhibitory concentration (microdilution, cation-adjusted Mueller-Hinton Broth)
S. aureus A798 = type: cell-based, Staphylococcus aureus; details: Staphylococcus aureus, A798; multiply-resistant strain (methicillin- and quinolone-resistant)
Procedure, shortened: (§1)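 Broth microdilution in cation-adjusted Mueller-Hinton Broth per CLSI M7-A7; MICs in mg/L. S. aureus A798 is methicillin- and quinolone-resistant, K. pneumoniae T6474 penicillin-, cephalosporin- and quinolone-resistant; E. coli ATCC25922 and P. aeruginosa ATCC 27853 are quinolone-sensitive.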

E. coli ATCC25922 = type: cell-based; details: Escherichia coli, ATCC25922; quinolone-sensitive strain
Procedure, shortened: as §1

K. pneumoniae T6474 = type: cell-based, Klebsiella pneumoniae; details: Klebsiella pneumoniae, T6474; multiply-resistant strain (penicillin-, cephalosporin- and quinolone-resistant)
Procedure, shortened: as §1

P. aeruginosa ATCC 27853 = type: cell-based, Pseudomonas aeruginosa; details: Pseudomonas aeruginosa, ATCC27853; quinolone-sensitive strain
Procedure, shortened: as §1

Row | SMILES | MIC (S. aureus A798) [µg/mL] | MIC (E. coli ATCC25922) [µg/mL] | MIC (K. pneumoniae T6474) [µg/mL] | MIC (P. aeruginosa ATCC 27853) [µg/mL]
1 | NCCOc1cccc(-c2ccnc(CNCC[C@H]3CN(c4ccc5c(n4)NC(=O)CO5)C(=O)O3)n2)n1 [Example $165, 6-{(S)-5-[2-({4-[6-(2-amino-ethoxy)-pyridin-2-yl]-pyrimidin-2-ylmethyl}-amino)-ethyl]-2-oxo-oxazolidin-3-yl}-4H-pyrido[3,2-b][1,4]oxazin-3-one] | 8 (≈ 15.8 µM) | 4 (≈ 7.9 µM) | 4 (≈ 7.9 µM) | 2 (≈ 3.95 µM)
2 | CN1CC[C@@H](Oc2cnnc(-c3cccc(CNCC[C@H]4CN(c5ccc6c(n5)NC(=O)CO6)C(=O)O4)c3)c2)C1 [Example $166, 6-[(S)-5-(2-{3-[5-((R)-1-methyl-pyrrolidin-3-yloxy)-pyridazin-3-yl]-benzylamino}-ethyl)-2-oxo-oxazolidin-3-yl]-4H-pyrido[3,2-b][1,4]oxazin-3-one] | 4 (≈ 7.33 µM) | 2 (≈ 3.67 µM) | 4 (≈ 7.33 µM) | 4 (≈ 7.33 µM)
3 | CN1CC[C@H](Oc2cccc(-c3cccc(CNCC[C@H]4CN(c5ccc6c(c5)NC(=O)CS6)C(=O)O4)c3)n2)C1 [Example $167, 6-[(S)-5-(2-{3-[6-((S)-1-methyl-pyrrolidin-3-yloxy)-pyridin-2-yl]-benzylamino}-ethyl)-2-oxo-oxazolidin-3-yl]-4H-benzo[1,4]thiazin-3-one] | 0.25 (≈ 0.447 µM) | 1 (≈ 1.79 µM) | 1 (≈ 1.79 µM) | 1 (≈ 1.79 µM)
4 | CN1CC[C@@H](Oc2cccc(-c3cccc(CNCC[C@H]4CN(c5ccc6c(c5)NC(=O)CS6)C(=O)O4)c3)n2)C1 [Example $168, 6-[(S)-5-(2-{3-[6-((R)-1-methyl-pyrrolidin-3-yloxy)-pyridin-2-yl]-benzylamino}-ethyl)-2-oxo-oxazolidin-3-yl]-4H-benzo[1,4]thiazin-3-one] | 1 (≈ 1.79 µM) | 2 (≈ 3.57 µM) | 2 (≈ 3.57 µM) | 2 (≈ 3.57 µM)
5 | CN1CC[C@@H](Oc2cccc(-c3cccc(CNCC[C@@H]4CN(c5ccc6c(c5)NC(=O)CS6)C(=O)O4)c3)n2)C1 [Example $169, 6-[(R)-5-(2-{3-[6-((R)-1-methyl-pyrrolidin-3-yloxy)-pyridin-2-yl]-benzylamino}-ethyl)-2-oxo-oxazolidin-3-yl]-4H-benzo[1,4]thiazin-3-one] | 0.25 (≈ 0.447 µM) | 1 (≈ 1.79 µM) | 2 (≈ 3.57 µM) | 2 (≈ 3.57 µM)
6 | COc1cc(O[C@H]2CCN(C)C2)cc(-c2cccc(CNCC[C@H]3CN(c4ccc5c(n4)NC(=O)CO5)C(=O)O3)c2)n1 [Example $170, 6-[(S)-5-(2-{3-[6-methoxy-4-((S)-1-methyl-pyrrolidin-3-yloxy)-pyridin-2-yl]-benzylamino}-ethyl)-2-oxo-oxazolidin-3-yl]-4H-pyrido[3,2-b][1,4]oxazin-3-one] | 0.25 (≈ 0.435 µM) | 2 (≈ 3.48 µM) | 4 (≈ 6.96 µM) | 2 (≈ 3.48 µM)
7 | CN1CCC[C@@H]1COc1cccc(-c2cccc(CNCC[C@H]3CN(c4ccc5c(n4)NC(=O)CO5)C(=O)O3)c2)n1 [Example $171, 6-[(S)-5-(2-{3-[6-((R)-1-methyl-pyrrolidin-2-ylmethoxy)-pyridin-2-yl]-benzylamino}-ethyl)-2-oxo-oxazolidin-3-yl]-4H-pyrido[3,2-b][1,4]oxazin-3-one] | 0.25 (≈ 0.448 µM) | 1 (≈ 1.79 µM) | 1 (≈ 1.79 µM) | 1 (≈ 1.79 µM)
8 | CN1CC(Oc2cnnc(-c3cccc(CNCC[C@H]4CN(c5ccc6c(n5)NC(=O)CO6)C(=O)O4)c3)c2)C1 [Example $174, 6-[(S)-5-(2-{3-[5-(1-methyl-azetidin-3-yloxy)-pyridazin-3-yl]-benzylamino}-ethyl)-2-oxo-oxazolidin-3-yl]-4H-pyrido[3,2-b][1,4]oxazin-3-one] | 2 (≈ 3.76 µM) | 1 (≈ 1.88 µM) | 2 (≈ 3.76 µM) | 2 (≈ 3.76 µM)
9 | C[C@H]1C[C@H](Oc2cccc(-c3cccc(CNCC[C@H]4CN(c5ccc6c(n5)NC(=O)CO6)C(=O)O4)c3)n2)CN1C [Example $175, 6-[(S)-5-(2-{3-[6-((3S,5S)-1,5-dimethyl-pyrrolidin-3-yloxy)-pyridin-2-yl]-benzylamino}-ethyl)-2-oxo-oxazolidin-3-yl]-4H-pyrido[3,2-b][1,4]oxazin-3-one] | 0.25 (≈ 0.448 µM) | 2 (≈ 3.58 µM) | 4 (≈ 7.16 µM) | 4 (≈ 7.16 µM)
10 | CN1CC(Oc2cncc(-c3cccc(CNCC[C@H]4CN(c5ccc6c(n5)NC(=O)CO6)C(=O)O4)n3)n2)C1 [Example $179, 6-{(S)-5-[2-({6-[6-(1-methyl-azetidin-3-yloxy)-pyrazin-2-yl]-pyridin-2-ylmethyl}-amino)-ethyl]-2-oxo-oxazolidin-3-yl}-4H-pyrido[3,2-b][1,4]oxazin-3-one] | 0.5 (≈ 0.939 µM) | 1 (≈ 1.88 µM) | 1 (≈ 1.88 µM) | 2 (≈ 3.76 µM)
11 | O=C1COc2ccc(N3C[C@H](CCNCc4cccc(-c5cc(O[C@@H]6CCNC6)cnn5)c4)OC3=O)nc2N1 [Example $180, 6-[(S)-2-oxo-5-(2-{3-[5-((R)-pyrrolidin-3-yloxy)-pyridazin-3-yl]-benzylamino}-ethyl)-oxazolidin-3-yl]-4H-pyrido[3,2-b][1,4]oxazin-3-one] | > 16 | 16 (≈ 30.1 µM) | > 16 | 4 (≈ 7.52 µM)
12 | O=C1COc2ccc(N3C[C@H](CCNCc4cccc(-c5cc(O[C@H]6CCNC6)cnn5)c4)OC3=O)nc2N1 [Example $181, 6-[(S)-2-oxo-5-(2-{3-[5-((S)-pyrrolidin-3-yloxy)-pyridazin-3-yl]-benzylamino}-ethyl)-oxazolidin-3-yl]-4H-pyrido[3,2-b][1,4]oxazin-3-one] | 16 (≈ 30.1 µM) | 16 (≈ 30.1 µM) | > 16 | 4 (≈ 7.52 µM)
13 | O=C1COc2ccc(N3C[C@H](CCNCc4cccc(-c5cc(OC[C@@H]6CCN6)cnn5)c4)OC3=O)nc2N1 [Example $182, 6-[(S)-5-(2-{3-[5-((S)-1-azetidin-2-ylmethoxy)-pyridazin-3-yl]-benzylamino}-ethyl)-2-oxo-oxazolidin-3-yl]-4H-pyrido[3,2-b][1,4]oxazin-3-one] | 8 (≈ 15 µM) | 16 (≈ 30.1 µM) | 16 (≈ 30.1 µM) | 16 (≈ 30.1 µM)
14 | CN1CC(Oc2cccc(-c3cc(CNCC[C@H]4CN(c5ccc6c(n5)NC(=O)CO6)C(=O)O4)ccn3)n2)C1 [Example $185, 6-[(S)-5-(2-{[6′-(1-methyl-azetidin-3-yloxy)-[2,2′]bipyridinyl-4-ylmethyl]-amino}-ethyl)-2-oxo-oxazolidin-3-yl]-4H-pyrido[3,2-b][1,4]oxazin-3-one] | 0.125 (≈ 0.235 µM) | 0.5 (≈ 0.941 µM) | 0.5 (≈ 0.941 µM) | 1 (≈ 1.88 µM)
15 | CN1CC(Oc2cccc(-c3ccnc(CNCC[C@H]4CN(c5ccc6c(n5)NC(=O)CO6)C(=O)O4)c3)n2)C1 [Example $186, 6-[(S)-5-(2-{[6-(1-methyl-azetidin-3-yloxy)-[2,4′]bipyridinyl-2′-ylmethyl]-amino}-ethyl)-2-oxo-oxazolidin-3-yl]-4H-pyrido[3,2-b][1,4]oxazin-3-one] | 0.25 (≈ 0.47 µM) | 0.5 (≈ 0.941 µM) | 1 (≈ 1.88 µM) | 0.5 (≈ 0.941 µM)
16 | CN1CC(Oc2cncc(-c3ccnc(CNCC[C@H]4CN(c5ccc6c(n5)NC(=O)CO6)C(=O)O4)c3)n2)C1 [Example $187, 6-{(S)-5-[2-({4-[6-(1-methyl-azetidin-3-yloxy)-pyrazin-2-yl]-pyridin-2-ylmethyl}-amino)-ethyl]-2-oxo-oxazolidin-3-yl}-4H-pyrido[3,2-b][1,4]oxazin-3-one] | 0.5 (≈ 0.939 µM) | 0.5 (≈ 0.939 µM) | 1 (≈ 1.88 µM) | 0.5 (≈ 0.939 µM)
17 | CN1CC(Oc2cccc(-c3cccc(CNCC[C@H]4CN(c5ccc6c(n5)NC(=O)CO6)C(=O)O4)n3)n2)C1 [Example $188, 6-[(S)-5-(2-{[6′-(1-methyl-azetidin-3-yloxy)-[2,2′]bipyridinyl-6-ylmethyl]-amino}-ethyl)-2-oxo-oxazolidin-3-yl]-4H-pyrido[3,2-b][1,4]oxazin-3-one] | 1 (≈ 1.88 µM) | 1 (≈ 1.88 µM) | 2 (≈ 3.76 µM) | 4 (≈ 7.52 µM)
18 | CN1CC(Oc2cncc(-c3cc(CNCC[C@H]4CN(c5ccc6c(n5)NC(=O)CO6)C(=O)O4)ccn3)n2)C1 [Example $189, 6-{(S)-5-[2-({2-[6-(1-methyl-azetidin-3-yloxy)-pyrazin-2-yl]-pyridin-4-ylmethyl}-amino)-ethyl]-2-oxo-oxazolidin-3-yl}-4H-pyrido[3,2-b][1,4]oxazin-3-one] | 0.25 (≈ 0.469 µM) | 1 (≈ 1.88 µM) | 1 (≈ 1.88 µM) | 2 (≈ 3.76 µM)
19 | CN1CC(Oc2cncc(-c3cncc(CNCC[C@H]4CN(c5ccc6c(n5)NC(=O)CO6)C(=O)O4)c3)n2)C1 [Example $190, 6-{(S)-5-[2-({5-[6-(1-methyl-azetidin-3-yloxy)-pyrazin-2-yl]-pyridin-3-ylmethyl}-amino)-ethyl]-2-oxo-oxazolidin-3-yl}-4H-pyrido[3,2-b][1,4]oxazin-3-one] | 4 (≈ 7.51 µM) | 2 (≈ 3.76 µM) | 4 (≈ 7.51 µM) | 4 (≈ 7.51 µM)
